According to US20240246941A1, “SUBSTITUTED 4-(3-AMINOPROP-1-YL)AMINOQUINOLINE ANALOGS AS MODULATORS OF MELANOMA-ASSOCIATED ANTIGEN 11 UBIQUITIN LIGASE” (ST. JUDE CHILDREN'S RESEARCH HOSPITAL, INC., priority 2020, published 2024):

target: interaction between GST-MAGEA11 MHD and FAM-PCF11_4 peptide (MAGE-A11:PCF11) (Homo sapiens (Human), UniProt P43364); experiment: TR-FRET dose response competition assay for disruption of MAGE-A11:PCF11 binding; settings: Dose response TR-FRET screening of nine scaffold groups against MAGE-A11:PCF11; read-out: consensus IC50
Excerpt: TR-FRET Assays and High-throughput Screen. Terbium-anti-GST antibody, 1 M Tris pH 7.5 1 M MgCl2 and 1 M DTT were purchased from Invitrogen (Carlsbad, CA), BSA was purchased from Sigma (St. Louis, MO). Dimethyl sulfoxide (DMSO) was purchased from Fisher Scientific (Pittsburgh, PA). Black 384-well low volume plates and 384-well polypropylene compound plates were purchased from Corning Incorporated (Tewksbury, MA). The St. Jude FDA drug and Bioactive library (11,293 chemicals), Drug-like library (10,073 chemicals) and Lead-like library (10,041 chemicals) were custom assembled and purchased from commercial sources including Sigma, Microsource (Gaylordsville, CT), selleckchem (Houston, TX), ChemDiv (San Diego, CA), ChemBridge (San Diego, CA), Enamine (Monmouth Jct., NJ), and Life Chemicals (Niagara-on-the-Lake, ON, Canada). They were arrayed (10 mM in DMSO) in 384-well polypropylene compound plates with columns 1, 2, 13 and 14 empty which were reserved for controls.
The TR-FRET assay buffer with a formula of 50 mM Tris pH 7.5, 20 mM MgCl2, 0.1 mg/ml BSA and 1 mM DTT was freshly prepared before each experiment. All TR-FRET assays were performed in black 384-well plates with 20 μl/well assay volume in the TR-FRET assay buffer at room temperature (approximately 25° C.). All peptides or compounds were solubilized in DMSO. To test the competitive activity of peptides or compounds against the interaction between GST-MAGEA11 MHD and FAM-PCF11_4 peptide, 10 μl/well peptide or compound at specified concentration was dispensed into a black 384-well low volume plate, followed by 5 μl/well FAM-PCF11_4 (800 nM), 5 μl/well Tb-anti-GST (20 nM) and GST-MAGEA11 MHD (20 nM). The assay components in each well was then mixed by shaking the plate on an IKA MTS 2/4 digital microtiter plate shaker (IKA Works; Wilmington, NC, USA) at 900 RPM for 1 minute. The plate was further centrifuged in an Eppendorf 5810 centrifuge with an A-4-62 swing-bucket rotor (Eppendorf AG, Hamburg, Germany) at 201 g (1000 rpm) for 30 seconds. The plate was then incubated for 90 min with a lid to avoid light exposure to the assay components. After incubation, the fluorescent emission signals at 520 nm and 490 nm channels of individual wells were measured with a PHERAstar FS plate reader (BMG Labtech; Durham, NC, USA) by using a 340 nm excitation filter, 100 μs delay time, and 200 μs integration time. The TR-FRET fluorescence emission ratio (TR-FRET signal) for each well was presented as 10 000×520 nm/490 nm, which was used directly for curve fitting, or further converted to % Inhibition based on the respective positive and negative controls. The graphic software GraphPad Prism 4.81 (GraphPad Software; La Jolla, CA, USA) was used to generate curves and derive IC50 values of tested peptides or compounds, if applicable.
TR-FRET inhibitory activity characterization of a panel of PCF11 peptides against the interaction between GST-MAGEA11 MHD and FAM-PCF11_4 was performed as follows. In a 20 μl/well assay volume, dilutions of PCF11_1 to PCF11_8 peptides (concentrations ranged from 3.1 nM to 100 μM for peptides PCF11_4, PCF11_5, PCF11_6 and PCF11_8 in a 1-to-2 dilution pattern for 16 concentration levels, and ranged from 48.9 nM to 100 μM for peptides of PCF11_1, PCF11_2, PCF11_3 and PCF11_7 in a 1-to-2 dilution pattern for 12 concentration levels), 200 nM FAM-PCF11_4, 5 nM Tb-anti-GST and 5 nM GST-MAGEA11 were mixed together and incubated for 90 min before the TR-FRET signal for each well was measured. The final DMSO concentration was 1.1% (v/v). […] The signal of each peptide-treated well (Signalpeptide) was normalized to the positive and negative controls to derive % inhibition of the peptide at a specific concentration with equation 1. Where applicable, the % Inhibition data were fit into a Sigmoidal dose response equation to derive IC50 values.
TR-FRET screen for identifying MAGEA11 small molecule inhibitors was performed as follows.

Chain of interaction between GST-MAGEA11 MHD and FAM-PCF11_4 peptide (MAGE-A11:PCF11) (P43364 218-429): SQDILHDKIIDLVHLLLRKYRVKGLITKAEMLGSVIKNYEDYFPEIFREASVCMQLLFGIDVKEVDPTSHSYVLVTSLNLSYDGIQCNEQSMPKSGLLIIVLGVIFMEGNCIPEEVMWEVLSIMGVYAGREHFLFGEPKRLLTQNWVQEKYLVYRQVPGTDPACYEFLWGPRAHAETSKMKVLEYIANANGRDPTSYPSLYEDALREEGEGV

Row | SMILES | IC50
1 | COCCn1c(-c2ccc(SC)cc2)nc2c1c(=O)[nH]c(=O)n2CC(C)C [SJ000378917-1] | 69.9 µM
2 | Cn1c(-c2ccc3c(c2)OCO3)nc2c1c(=O)[nH]c(=O)n2C [SJ000518479-1] | 69.9 µM

same assay, conditions: Table 5, dose response TR-FRET screening of 59 quinoline compounds against MAGE-A11:PCF11; read-out: TR-FRET IC50

Row | SMILES | IC50
3 | Clc1ccc2c(NCCCN(Cc3ccccc3)Cc3ccc4[nH]ccc4c3)ccnc2c1 [SJ000520430-1] | 41.7 µM

target: MAGE-A11:PCF11 (Homo sapiens (Human), UniProt P43364); experiment: TR-FRET single point screening at 15 μM; assay type: binding; parameters: unit not given here; settings: single point TR-FRET screening at 15 μM against MAGE-A11:PCF11
How it was run: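 Competition TR-FRET: compounds at final 15 μM mixed with 200 nM FAM-PCF11_4, 5 nM GST-MAGEA11 and 5 nM Tb-anti-GST in Tris pH 7.5/MgCl2/BSA/DTT buffer, room temperature, 90 min. Emission ratio 520/490 nm (340 nm excitation) expressed as % inhibition relative to positive and negative controls.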

Chain of MAGE-A11:PCF11 (P43364 218-429): as above

Row | SMILES | TR-FRET signal
4 | COc1ccc2nc3cc(Cl)ccc3c(NCCCNCc3ccoc3)c2c1 [SJ000520916] | −299.4
5 | COc1ccccc1CN(CCCCNc1ccnc2cc(Cl)ccc12)Cc1ccccc1 [SJ000522726] | 19.4
6 | CCOc1ccc2ncc(S(=O)(=O)c3ccccc3)c(N3CCN(c4ccc(F)cc4)CC3)c2c1 [SJ000083979] | −181.3
7 | Clc1ccc2c(NC3CCN(CC4CC4)CC3)ccnc2c1 [SJ000357481] | 3.973
8 | Cc1ccc(S(=O)(=O)c2cnc3ccccc3c2N2CCN(C)CC2)cc1 [SJ000247268] | −13.59
9 | CCN(CC)CC(=O)Nc1c2c(nc3ccccc13)N(C)CC2 [SJ000331537] | 11.78
10 | COc1ccc(N2CCN(c3c(S(=O)(=O)c4ccccc4)cnc4ccc(F)cc34)CC2)cc1 [SJ000083982] | −32.85
11 | COc1ccc2ncc(S(=O)(=O)c3ccc(C)cc3)c(N3CCN(c4ccccc4F)CC3)c2c1 [SJ000117076] | 6.02
12 | CCOC(=O)c1cnc2c(C(=O)OC)cccc2c1NCCN1CCOCC1 [SJ000184799] | 4.043
13 | C=CCOCC(O)CN1CCN(c2cc(C)nc3ccccc23)CC1 (stereo not drawn) [SJ000227652] | −0.207
14 | COc1cccc(CN(CCCCNc2ccnc3cc(Cl)ccc23)Cc2ccccc2)c1 [SJ000361210] | 11.72
15 | Cc1ccc2ncc(S(=O)(=O)c3ccccc3)c(N3CCN(Cc4ccccc4)CC3)c2c1 [SJ000247256] | 2.673
16 | CN(C)CC(=O)Nc1c2c(nc3ccccc13)N(C)CC2 [SJ000332030] | 17.04
17 | CCCN(CCCNc1c2ccc(Cl)cc2nc2ccc(OC)cc12)Cc1ccc(C)s1 [SJ000520927] | −124.8
18 | CCN1CCN(c2c(S(=O)(=O)c3ccccc3)cnc3ccc(C)cc23)CC1 [SJ000083956] | −3.448
19 | CCN1CCN(c2c(S(=O)(=O)c3ccc(OC)cc3)cnc3cc(OC)c(OC)cc23)CC1 [SJ000083972] | 7.411
20 | Cc1cccc(CN2CCC(Nc3ccnc4cc(Cl)ccc34)CC2)c1 [SJ000523101] | 18.54
21 | CCCCCCN(CCCCNc1ccnc2cc(Cl)ccc12)Cc1ccccc1 [SJ000361212] | 23.58
22 | CCCN(CCCCNc1ccnc2cc(Cl)ccc12)Cc1c[nH]c2ccccc12 [SJ000311204] | −3.378
23 | Fc1cccc(CN2CCC(Nc3ccnc4cc(Cl)ccc34)CC2)c1 [SJ000523092] | 6.622
24 | Clc1ccc2c(NCCCCN(CCc3ccccc3)Cc3ccccc3)ccnc2c1 [SJ000361211] | 23.38
25 | CCc1ccc(S(=O)(=O)c2cnc3ccccc3c2N2CCN(c3ccccc3)CC2)cc1 [SJ000117053] | −21.21
26 | Clc1ccc2c(NCCCCN(CCCc3ccccc3)Cc3ccccc3)ccnc2c1 [SJ000522729] | 27.82
27 | C=CCOCC(O)CN1CCN(c2cc(C(F)(F)F)nc3ccccc23)CC1 (stereo not drawn) [SJ000228017] | −2.128
28 | CCCCCN1CCC(Nc2ccnc3cc(Cl)ccc23)CC1 [SJ000523088] | 12.17
29 | Cc1ccc(S(=O)(=O)N2CCN(c3ccnc4cc(Cl)ccc34)CC2)cc1 [SJ000192519] | −38.7
30 | CCOC(=O)c1cnc2ccc(Cl)cc2c1N1CCN(C)CC1 [SJ000187322] | −0.9277
31 | COc1ccc(CN2CCC(Nc3ccnc4cc(Cl)ccc34)CC2)cc1OC [SJ000523103] | 11.75
32 | CCOC(=O)c1cnc2c(Cl)c(Cl)ccc2c1NCCN(C)C [SJ000027266] | 2.575

same assay, conditions: single point TR-FRET screening of quinoline compounds against MAGE-A11:PCF11; 15 μM

Row | SMILES | TR-FRET signal
33 | Cn1cc(CNCCCNc2ccnc3cc(C(F)(F)F)ccc23)c2ccccc21 [SJ000521043] | 29.11
34 | Clc1ccc2c(NCCCNCc3ccccn3)ccnc2c1 [SJ000523050] | 4.744
35 | CC(C)(C)c1ccc(-c2ccc3c(NCCCNCc4ccco4)ccnc3c2)cc1 [SJ000311286] | 73.5
36 | CCCN(CCCNc1c2ccc(Cl)cc2nc2ccc(OC)cc12)Cc1c(Cl)ccc(Cl)c1Cl [SJ000523021] | 40
37 | CCCN(CCCNc1ccnc2cc(C(F)(F)F)ccc12)Cc1cc2ccccc2s1 [SJ000520482] | 13.01
38 | CCCN(CCCNc1ccnc2cc(Cl)ccc12)Cc1cc(C(F)(F)F)ccc1OC [SJ000523012] | 30.4
39 | CCCN(CCCNc1ccnc2cc(Cl)ccc12)Cc1ccccn1 [SJ000522743] | 1.313
40 | CCCCCN(CCC)CCCNc1ccnc2cc(Cl)ccc12 [SJ000522754] | 16.29
41 | Cn1cccc1CNCCCNc1ccnc2cc(C(F)(F)F)ccc12 [SJ000521041] | −6.879
42 | CCCN(CCCNc1c2ccc(Cl)cc2nc2ccc(OC)cc12)Cc1c(F)cccc1C(F)(F)F [SJ000522968] | 23.09
43 | O=[N+]([O-])c1cccc(CN(CCCNc2ccnc3cc(Cl)ccc23)Cc2ccccc2)c1 [SJ000361178] | 17.02
44 | CC(C)Cc1ccc2c(NCCCNCc3ccco3)ccnc2c1 [SJ000311258] | 8.874
45 | CCCCCCN(CCCNc1ccnc2cc(Cl)ccc12)Cc1ccccc1 [SJ000361189] | −40.75
46 | CCCN(CCCNc1c2ccc(Cl)cc2nc2ccc(OC)cc12)Cc1cc(F)cc(F)c1O [SJ000522982] | 2.045
47 | CCCN(CCCNc1ccnc2cc(C(F)(F)F)ccc12)CC(CC)CC [SJ000361269] | 30.66
48 | CCCCN(CCC)CCCNc1ccnc2cc(Cl)ccc12 [SJ000357571] | 12.78
49 | Clc1ccc2c(NCCCNCc3cc4ccccc4s3)ccnc2c1 [SJ000521032] | 30.13
50 | CCCN(CCCNc1ccnc2cc(C(F)(F)F)ccc12)Cc1cccc2ccccc12 [SJ000523074] | 14.32
51 | CCOC(=O)c1cnc2c(Cl)cc(Cl)cc2c1NCCCN1CCOCC1 [SJ000176476] | −2.118
52 | CCCN(CCCNc1ccnc2cc(C(F)(F)F)ccc12)Cc1ccccc1O [SJ000361257] | 26.5
53 | CCCN(CCCNc1ccnc2cc(Cl)ccc12)Cc1c[nH]c2ccccc12 [SJ000523007] | 26.23
54 | CCCN(CCCNc1ccnc2cc(Cl)ccc12)Cc1cc(F)ccc1OC [SJ000357494] | 17.08
